Activity calls are given as the source filed them.
Experiments:
cells [1] = format: functional
[2] = molecular target: Peroxisome proliferator-activated receptor gamma/Nuclear receptor coactivator 3 (Homo sapiens, UniProt P37231); format: functional;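 note: agonist potency for raising coactivator recruitment to the receptor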
[3] = molecular target: T1, Rac GTPase-activating protein 1 (Homo sapiens, UniProt Q9H0H5); test: MgcRacGAP GTPase-activating activity inhibitors, confirmation, biochemical, ADP Hunter fluorescence, primary and confirmatory (AID 624330); format: functional
T1 sequence (Q9H0H5 whole entry): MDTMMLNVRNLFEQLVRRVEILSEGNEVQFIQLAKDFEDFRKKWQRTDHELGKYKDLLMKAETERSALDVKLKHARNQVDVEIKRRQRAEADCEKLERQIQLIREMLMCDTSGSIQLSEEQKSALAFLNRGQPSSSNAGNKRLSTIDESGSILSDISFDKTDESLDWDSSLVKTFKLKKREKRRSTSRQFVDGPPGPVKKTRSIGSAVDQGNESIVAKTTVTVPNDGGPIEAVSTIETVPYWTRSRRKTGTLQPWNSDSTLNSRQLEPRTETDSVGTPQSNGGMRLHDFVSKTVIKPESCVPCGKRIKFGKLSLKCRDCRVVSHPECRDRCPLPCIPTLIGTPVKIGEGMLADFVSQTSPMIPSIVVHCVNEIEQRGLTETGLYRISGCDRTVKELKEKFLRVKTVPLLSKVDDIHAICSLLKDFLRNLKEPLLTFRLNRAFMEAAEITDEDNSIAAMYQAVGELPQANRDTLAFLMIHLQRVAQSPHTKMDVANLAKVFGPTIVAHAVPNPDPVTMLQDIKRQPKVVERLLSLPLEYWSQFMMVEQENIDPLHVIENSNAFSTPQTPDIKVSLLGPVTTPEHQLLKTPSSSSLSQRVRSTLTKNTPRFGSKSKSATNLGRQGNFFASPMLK

[4] = molecular target: Hepatocyte nuclear factor 4-alpha (Homo sapiens, UniProt P41235); format: functional, cell-based;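 note: biochemical luminescence-based dose-response counterscreen measuring inhibition of HNF4 dimerization, run alongside a screen for blockers of ABHD5–perilipin-5 interaction; split luciferase complementation of HNF4 fusion proteins in cell lysate measuring dimerization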
[5] = molecular target: T2, Sentrin-specific protease 8 (Homo sapiens, UniProt Q96LD8); test: SENP8 protease inhibitors, SAR follow-up, biochemical, luminescence (AID 504501); format: functional
T2 sequence (Q96LD8 whole entry): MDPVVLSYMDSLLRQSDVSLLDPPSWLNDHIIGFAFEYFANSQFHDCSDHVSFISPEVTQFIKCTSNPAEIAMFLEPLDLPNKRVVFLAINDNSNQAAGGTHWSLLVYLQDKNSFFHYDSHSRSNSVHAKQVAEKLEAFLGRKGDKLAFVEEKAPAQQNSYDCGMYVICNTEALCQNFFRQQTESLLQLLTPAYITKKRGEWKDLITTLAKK

[6] = molecular target: T3, Nuclear receptor subfamily 0 group B member 1 (Homo sapiens, UniProt P51843); format: functional, cell-based;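 note: HEK293T cells transfected with SF-1 and DAX-1 plus StAR promoter luciferase reporter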
T3 sequence (P51843 whole entry): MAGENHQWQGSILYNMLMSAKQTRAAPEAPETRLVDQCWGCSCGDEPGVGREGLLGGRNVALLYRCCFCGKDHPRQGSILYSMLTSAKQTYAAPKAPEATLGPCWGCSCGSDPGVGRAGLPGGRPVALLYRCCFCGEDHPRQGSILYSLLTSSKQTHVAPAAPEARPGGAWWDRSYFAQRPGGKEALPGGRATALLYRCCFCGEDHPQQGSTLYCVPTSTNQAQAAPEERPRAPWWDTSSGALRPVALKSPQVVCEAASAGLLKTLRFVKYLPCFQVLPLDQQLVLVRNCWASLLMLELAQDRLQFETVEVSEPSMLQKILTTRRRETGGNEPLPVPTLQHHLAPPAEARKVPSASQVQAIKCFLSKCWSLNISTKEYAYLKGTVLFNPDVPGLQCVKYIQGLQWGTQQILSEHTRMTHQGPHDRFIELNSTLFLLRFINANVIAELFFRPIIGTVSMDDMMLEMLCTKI

cells [7] = test: cells
[8] = molecular target: Dual specificity protein kinase CLK2 (Homo sapiens, UniProt P49760); format: functional
[9] = molecular target: cGMP-dependent protein kinase 1 (Homo sapiens, UniProt Q13976); format: functional;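 note: value from a kinome panel screen with PRKG1 as the panel member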
[10] = molecular target: Testis-specific serine/threonine-protein kinase 2 (Homo sapiens, UniProt Q96PF2); format: functional;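 note: part of the Navigating the Kinome panel, target entry STK22B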
[11] = molecular target: Serine/threonine-protein kinase TAO1 (Homo sapiens, UniProt Q7L7X3); format: functional
[12] = molecular target: Proto-oncogene tyrosine-protein kinase ROS (Homo sapiens, UniProt P08922); format: functional;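 note: ROS1 tested as one member of a kinome-wide kinase panel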
[13] = molecular target: Tyrosine-protein kinase Blk (Homo sapiens, UniProt P51451); format: functional;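 note: obtained as one member of a kinome-wide kinase assay panel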
[14] = molecular target: Protein kinase C gamma type (Homo sapiens, UniProt P05129); format: functional
[15] = molecular target: Tyrosine-protein kinase Srms (Homo sapiens, UniProt Q9H3Y6); format: functional;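 note: SRMS measured as one member of a kinome-wide kinase profiling panel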
[16] = molecular target: Casein kinase I isoform delta (Homo sapiens, UniProt P48730); format: functional;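 note: measured as one member (CSNK1D) of a kinome panel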
[17] = molecular target: Serine/threonine-protein kinase Nek4 (Homo sapiens, UniProt P51957); format: functional
[18] = molecular target: Dual specificity tyrosine-phosphorylation-regulated kinase 4 (Homo sapiens, UniProt Q9NR20); format: functional
[19] = molecular target: cAMP-dependent protein kinase catalytic subunit PRKX (Homo sapiens, UniProt P51817); format: functional
[20] = molecular target: Tyrosine-protein kinase Fer (Homo sapiens, UniProt P16591); format: functional;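 note: FER tested as one member of a kinome panel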
[21] = molecular target: Calcium/calmodulin-dependent protein kinase type 1 (Homo sapiens, UniProt Q14012); format: functional
[22] = molecular target: Serine/threonine-protein kinase MRCK alpha (Homo sapiens, UniProt Q5VT25); format: functional
[23] = molecular target: Tyrosine-protein kinase FRK (Homo sapiens, UniProt P42685); format: functional;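 note: FRK tested as one member of a kinome panel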
Wee1-like protein kinase = Wee1-like protein kinase (Homo sapiens, UniProt P30291); test: Dose Response Cell-based Assay for Inhibitors of Wee1 Degradation. [Related pubchem assays: 1410, 1321 ]; format: functional
[24] = C. albicans growth with fluconazole, confirmation, fluorescence, retest (AID 2467); format: functional, cell-based
[25] = cytotoxicity in HEK-293T cells, dose response, cytotoxicity control for TCR NF-kB inhibitor project, luminescence, T-cell screen hits (AID 489026); format: functional, cell-based;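 note: cells exposed to compound about 14 hours before the viability readout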

Testis-specific serine/threonine-protein kinase 2, sequence (Q96PF2 whole entry): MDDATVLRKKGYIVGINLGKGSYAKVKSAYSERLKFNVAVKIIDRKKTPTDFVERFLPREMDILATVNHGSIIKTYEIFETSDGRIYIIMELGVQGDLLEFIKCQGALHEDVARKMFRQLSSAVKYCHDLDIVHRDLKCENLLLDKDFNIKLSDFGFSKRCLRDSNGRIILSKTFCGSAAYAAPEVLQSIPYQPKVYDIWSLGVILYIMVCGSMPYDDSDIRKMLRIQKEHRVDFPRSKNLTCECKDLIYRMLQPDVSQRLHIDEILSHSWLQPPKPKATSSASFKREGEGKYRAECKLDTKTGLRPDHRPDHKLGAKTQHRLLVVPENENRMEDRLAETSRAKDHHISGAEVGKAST
Serine/threonine-protein kinase MRCK alpha, sequence (Q5VT25 whole entry): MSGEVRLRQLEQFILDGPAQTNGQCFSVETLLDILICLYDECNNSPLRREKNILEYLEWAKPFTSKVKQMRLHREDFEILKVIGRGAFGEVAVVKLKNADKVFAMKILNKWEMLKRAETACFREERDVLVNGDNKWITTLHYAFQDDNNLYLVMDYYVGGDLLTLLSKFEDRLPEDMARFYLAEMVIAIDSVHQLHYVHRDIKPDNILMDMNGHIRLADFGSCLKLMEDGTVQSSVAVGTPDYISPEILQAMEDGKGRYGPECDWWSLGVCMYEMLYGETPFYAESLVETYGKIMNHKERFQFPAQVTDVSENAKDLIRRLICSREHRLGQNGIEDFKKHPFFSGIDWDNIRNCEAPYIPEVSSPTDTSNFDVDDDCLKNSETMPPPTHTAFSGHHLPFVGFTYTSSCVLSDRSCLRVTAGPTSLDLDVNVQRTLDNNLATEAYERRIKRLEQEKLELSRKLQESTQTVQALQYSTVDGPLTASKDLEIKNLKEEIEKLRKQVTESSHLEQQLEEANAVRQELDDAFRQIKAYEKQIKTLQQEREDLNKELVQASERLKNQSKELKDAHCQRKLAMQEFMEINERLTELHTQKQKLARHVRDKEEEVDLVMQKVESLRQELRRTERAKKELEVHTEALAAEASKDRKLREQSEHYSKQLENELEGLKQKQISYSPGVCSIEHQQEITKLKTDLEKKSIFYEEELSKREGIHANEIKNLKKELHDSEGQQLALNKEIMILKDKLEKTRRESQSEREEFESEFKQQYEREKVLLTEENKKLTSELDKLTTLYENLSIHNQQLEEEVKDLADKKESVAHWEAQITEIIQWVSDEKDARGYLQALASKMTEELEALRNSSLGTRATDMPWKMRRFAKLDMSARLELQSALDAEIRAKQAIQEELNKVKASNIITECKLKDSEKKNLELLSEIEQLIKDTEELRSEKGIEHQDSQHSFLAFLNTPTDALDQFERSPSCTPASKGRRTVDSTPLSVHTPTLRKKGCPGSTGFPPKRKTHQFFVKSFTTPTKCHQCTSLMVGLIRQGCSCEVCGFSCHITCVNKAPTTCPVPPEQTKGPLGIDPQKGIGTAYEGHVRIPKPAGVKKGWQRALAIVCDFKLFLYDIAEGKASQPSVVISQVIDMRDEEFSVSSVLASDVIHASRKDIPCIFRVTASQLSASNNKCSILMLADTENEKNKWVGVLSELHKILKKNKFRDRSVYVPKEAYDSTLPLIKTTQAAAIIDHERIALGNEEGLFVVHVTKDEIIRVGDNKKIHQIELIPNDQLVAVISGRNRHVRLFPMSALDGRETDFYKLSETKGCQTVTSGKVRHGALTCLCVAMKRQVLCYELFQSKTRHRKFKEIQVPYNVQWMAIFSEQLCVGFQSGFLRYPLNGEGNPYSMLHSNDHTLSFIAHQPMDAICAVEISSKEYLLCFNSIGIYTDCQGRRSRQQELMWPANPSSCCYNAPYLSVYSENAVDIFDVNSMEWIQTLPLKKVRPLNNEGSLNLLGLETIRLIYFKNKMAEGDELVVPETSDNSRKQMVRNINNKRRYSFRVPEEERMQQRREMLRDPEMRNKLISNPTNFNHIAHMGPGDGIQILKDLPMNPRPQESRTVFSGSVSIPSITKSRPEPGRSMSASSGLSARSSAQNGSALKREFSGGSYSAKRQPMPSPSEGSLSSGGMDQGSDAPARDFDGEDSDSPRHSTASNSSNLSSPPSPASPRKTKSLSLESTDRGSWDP
cAMP-dependent protein kinase catalytic subunit PRKX, sequence (P51817 whole entry): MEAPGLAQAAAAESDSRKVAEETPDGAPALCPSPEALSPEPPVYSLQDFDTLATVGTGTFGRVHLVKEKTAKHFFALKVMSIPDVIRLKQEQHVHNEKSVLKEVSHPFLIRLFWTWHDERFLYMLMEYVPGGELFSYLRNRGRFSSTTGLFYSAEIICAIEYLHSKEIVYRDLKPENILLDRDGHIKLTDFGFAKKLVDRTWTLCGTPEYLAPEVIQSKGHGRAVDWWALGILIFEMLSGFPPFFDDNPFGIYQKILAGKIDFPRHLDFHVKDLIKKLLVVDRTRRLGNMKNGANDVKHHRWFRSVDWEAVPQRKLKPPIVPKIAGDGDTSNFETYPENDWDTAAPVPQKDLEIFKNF
Dual specificity protein kinase CLK2, sequence (P49760 whole entry): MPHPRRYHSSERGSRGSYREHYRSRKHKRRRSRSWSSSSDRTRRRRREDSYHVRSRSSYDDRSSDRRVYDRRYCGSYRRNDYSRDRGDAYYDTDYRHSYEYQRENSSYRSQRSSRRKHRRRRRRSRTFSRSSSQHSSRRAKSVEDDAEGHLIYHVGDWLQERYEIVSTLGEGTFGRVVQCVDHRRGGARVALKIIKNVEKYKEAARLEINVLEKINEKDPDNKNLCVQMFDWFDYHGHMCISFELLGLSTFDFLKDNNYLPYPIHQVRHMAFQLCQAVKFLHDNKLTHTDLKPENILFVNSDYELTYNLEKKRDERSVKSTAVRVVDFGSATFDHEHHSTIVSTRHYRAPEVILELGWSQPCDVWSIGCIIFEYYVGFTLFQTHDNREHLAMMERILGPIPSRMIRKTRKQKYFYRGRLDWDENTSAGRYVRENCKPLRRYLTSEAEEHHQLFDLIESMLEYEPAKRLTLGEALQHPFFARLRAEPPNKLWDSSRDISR
Tyrosine-protein kinase Blk, sequence (P51451 whole entry): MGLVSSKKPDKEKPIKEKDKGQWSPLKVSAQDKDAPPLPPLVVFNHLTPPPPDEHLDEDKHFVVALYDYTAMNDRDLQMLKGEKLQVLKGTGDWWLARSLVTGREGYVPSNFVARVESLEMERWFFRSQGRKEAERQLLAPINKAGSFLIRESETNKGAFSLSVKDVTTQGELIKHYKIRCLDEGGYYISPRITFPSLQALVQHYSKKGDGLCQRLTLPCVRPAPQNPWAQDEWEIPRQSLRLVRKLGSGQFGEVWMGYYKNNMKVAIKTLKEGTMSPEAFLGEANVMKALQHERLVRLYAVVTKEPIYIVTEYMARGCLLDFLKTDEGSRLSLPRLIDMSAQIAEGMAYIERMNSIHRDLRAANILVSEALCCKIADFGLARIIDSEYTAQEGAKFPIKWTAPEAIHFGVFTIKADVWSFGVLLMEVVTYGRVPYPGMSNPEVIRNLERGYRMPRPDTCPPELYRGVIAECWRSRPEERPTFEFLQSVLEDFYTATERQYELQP
Tyrosine-protein kinase FRK, sequence (P42685 whole entry): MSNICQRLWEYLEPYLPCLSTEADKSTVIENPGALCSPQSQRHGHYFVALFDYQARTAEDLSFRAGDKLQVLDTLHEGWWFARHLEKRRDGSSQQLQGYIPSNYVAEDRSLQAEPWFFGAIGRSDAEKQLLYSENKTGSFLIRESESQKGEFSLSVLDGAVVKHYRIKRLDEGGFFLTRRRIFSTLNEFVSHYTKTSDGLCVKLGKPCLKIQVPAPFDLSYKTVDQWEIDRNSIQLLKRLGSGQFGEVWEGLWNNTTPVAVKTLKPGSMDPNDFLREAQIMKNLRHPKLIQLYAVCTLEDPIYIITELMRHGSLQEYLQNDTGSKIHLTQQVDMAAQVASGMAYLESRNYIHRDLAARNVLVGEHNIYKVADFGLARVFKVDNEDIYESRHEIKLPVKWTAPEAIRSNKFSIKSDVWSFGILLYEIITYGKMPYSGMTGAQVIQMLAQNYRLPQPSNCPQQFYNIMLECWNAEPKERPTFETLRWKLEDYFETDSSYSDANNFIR
Tyrosine-protein kinase Srms, sequence (Q9H3Y6 whole entry, canonical isoform): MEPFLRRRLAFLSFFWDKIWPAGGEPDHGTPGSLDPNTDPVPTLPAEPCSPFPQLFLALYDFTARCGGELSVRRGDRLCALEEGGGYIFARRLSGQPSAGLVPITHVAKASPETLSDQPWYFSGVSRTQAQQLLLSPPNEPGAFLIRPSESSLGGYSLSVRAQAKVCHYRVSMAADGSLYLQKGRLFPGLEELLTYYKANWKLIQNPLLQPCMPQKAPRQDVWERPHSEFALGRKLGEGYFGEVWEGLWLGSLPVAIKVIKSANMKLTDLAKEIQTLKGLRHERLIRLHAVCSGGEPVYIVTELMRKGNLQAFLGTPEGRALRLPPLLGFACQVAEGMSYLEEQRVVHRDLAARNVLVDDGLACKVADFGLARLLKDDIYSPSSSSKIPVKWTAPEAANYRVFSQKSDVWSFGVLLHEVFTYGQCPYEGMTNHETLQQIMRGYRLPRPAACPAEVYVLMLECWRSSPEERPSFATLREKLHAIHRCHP
Casein kinase I isoform delta, sequence (P48730 whole entry, canonical isoform): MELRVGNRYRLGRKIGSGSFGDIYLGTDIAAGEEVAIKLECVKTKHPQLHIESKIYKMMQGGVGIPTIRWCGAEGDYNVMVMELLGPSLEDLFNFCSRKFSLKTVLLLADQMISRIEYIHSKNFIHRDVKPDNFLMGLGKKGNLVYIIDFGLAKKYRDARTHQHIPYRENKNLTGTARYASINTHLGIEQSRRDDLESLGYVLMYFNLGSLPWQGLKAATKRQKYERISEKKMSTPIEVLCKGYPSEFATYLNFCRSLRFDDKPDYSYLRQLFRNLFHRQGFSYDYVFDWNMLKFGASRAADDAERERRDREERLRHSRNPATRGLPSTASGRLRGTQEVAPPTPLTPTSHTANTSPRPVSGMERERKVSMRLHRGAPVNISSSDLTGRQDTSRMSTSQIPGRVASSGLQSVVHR

## Nc1ccc(Br)c2cccnc12
Cells [1]
  IC50: > 50 µM (active)

## CN(C)c1ncc(C2=C(Cl)C(=O)C(N3CCCC3)=C(Cl)C2=O)s1
[2]
  EC50: > 79.4 µM (not active)
[3]
  IC50: 89.5 µM (active)

## Cc1ccc(C(=O)c2c(C)oc3c2C(=O)C(=O)c2ccccc2-3)cc1
[4]
  IC50: 5.42 µM (active)

## Cc1cnc(NC(=O)c2sc3ccccc3c2Cl)s1
[5]
  IC50: 3.78 µM (active)
[6]
  IC50: > 67.5 µM (inactive)
Cells [7]
  EC50: > 67.5 µM (inactive)

## O=C1NC(=S)SC1=C1C(=O)Nc2ccc(Br)cc21
[8]
  Ki: 7.94 µM (active)
[9]
  Ki: > 2 µM (inactive)
[10]
  Ki: > 1.58 µM (inactive)
[11]
  Ki: 5.01 µM (active)
[12]
  Ki: > 2 µM (inactive)
[13]
  Ki: > 1.58 µM (inactive)
[14]
  Ki: > 7.94 µM (inactive)
[15]
  Ki: > 1.58 µM (inactive)
[16]
  Ki: 5.01 µM (active)
[17]
  Ki: > 6.31 µM (inactive)
[18]
  Ki: > 7.94 µM (inactive)
[19]
  Ki: > 1.58 µM (inactive)
[20]
  Ki: > 1.58 µM (inactive)
[21]
  Ki: > 3.16 µM (inactive)
[22]
  Ki: > 10 µM (inactive)
[23]
  Ki: > 2.51 µM (inactive)

## Cc1ccc(Nc2cc(C)nn2-c2nc(C)cc(O)n2)cc1
Wee1-like protein kinase
  EC50: > 1.84 µM (active)
[24]
  EC50: < 0.03 µM (active)
[25]
  IC50: > 80 µM (inactive)

— ChEMBL document CHEMBL1201862, “PubChem BioAssay data set” (2004)
